Columns and labels:
AMD patients [1] = test: Clinical assessment of AMD diagnosis and response to statin therapy; assay type: in vivo, human
Description: AMD status has been determined in the art using a number of recognized grading systems, such as the Beckman AMD Classification System, the Age-Related Eye Disease Study (AREDS) Severity Scale, the AREDS Simplified Severity Scale, the International Classification and Grading System for AMD, and the Wisconsin Age-Related Maculopathy Grading System. When a determination of AMD status is required for a subject, the determination of AMD status is made using the Beckman AMD Classification System (Ferris et al. Ophthalmology 2013; 120:844-851).
(§1) Table 2 provides detailed information regarding patients 1 to 7, including the baseline diagnosis (diagnosis made when starting statin therapy), ending diagnosis (the diagnosis made on the date of the last referenced evaluation), the results of evaluations performed on each patient, and whether the patient responded to statin therapy. The dark adaptation data in this Example is the rod intercept time (or RI time) reported in minutes. In this Example, the dark adaptation data was collected using the AdaptDx® Dark Adaptometer (MacuLogix, Middletown, PA) running its standard Extended Test protocol. […] Data is automatically analyzed by the AdaptDx Dark Adaptometer to provide an RI time based on recovery to a criterion sensitivity level of 5×10^−3 scotopic cd/m^2. […] The visual acuity data was collected using a standard Snellen or ETDRS eye chart with the results presented using the standard 20/20 vision scale. Drusen resolution was determined by evaluation of fundus and OCT imaging by qualified clinicians experienced in AMD evaluation. Fundus and OCT imaging data was collected using the Heidelberg Engineering Spectralis® SD-OCT (Heidelberg, Germany) or the Karl Zeiss Meditec Cirrus® HD-OCT (Jena, Germany), in both cases running standard protocols with automated data analysis performed by the instruments.
The baseline diagnosis and ending diagnosis are the result of clinical assessment by qualified clinicians experienced in evaluation of AMD patients. The clinical assessment was carried out utilizing standard ophthalmic testing, such as, but not limited to, slit-lamp biomicroscopy (including looking for evidence of drusen and pigmentary changes), fundus and OCT imaging (including looking for evidence of drusen and pigmentary changes and calculation of retinal volume and retinal thickness), and testing with a Snellen or ETDRS eye chart (including looking for visual acuity changes that might indicate a change in disease status). Dark adaptation results were not used in the clinical assessment of the baseline or ending diagnosis.
Patients 1, 3-5 and 7 were determined to be non-responders to statin treatment as the initial diagnosis was unchanged after treatment and clinical evaluation. […] For patient 2, RI time improved by 1.67 minutes OD and 2.60 minutes OS agreeing with the clinical assessment of a response to statin therapy (i.e., improving clinically). Patient 6 could not be clearly classified as a responder or non-responder to statin treatment. […] For patient 6, RI time decreased by 2.2 minutes OD, agreeing with the initial clinical signs of a response to statin therapy.

AMD patients [2] = test: Visual acuity, standard Snellen or ETDRS eye chart; assay type: in vivo, human; settings: Patient #1, atorvastatin 20 to 80 mg/day
Description: as §1

CC(C)c1c(C(=O)Nc2ccccc2)c(-c2ccccc2)c(-c2ccc(F)cc2)n1CC[C@@H](O)C[C@@H](O)CC(=O)O [atorvastatin]
Diagnosis (AMD patients [1]; Patient #1, atorvastatin 20 to 80 mg/day from July 2013, OD, month 0 (July 2013), baseline): Intermediate AMD | Diagnosis (AMD patients [1]; Patient #1, atorvastatin 20 to 80 mg/day from July 2013, OS, month 0 (July 2013), baseline): Intermediate AMD | Diagnosis (AMD patients [1]; Patient #1, atorvastatin 20 to 80 mg/day, OD, month 60 (July 2018), ending diagnosis): Intermediate AMD | Diagnosis (AMD patients [1]; Patient #1, atorvastatin 20 to 80 mg/day, OS, month 60 (July 2018), ending diagnosis): Intermediate AMD | Responder (AMD patients [1]; Patient #1, atorvastatin 20 to 80 mg/day, month 60 (July 2018)): No | Diagnosis (AMD patients [1]; Patient #2, atorvastatin 80 mg/day from January 2013, OD, month 0 (January 2013), baseline): Intermediate AMD | Diagnosis (AMD patients [1]; Patient #2, atorvastatin 80 mg/day from January 2013, OS, month 0 (January 2013), baseline): Intermediate AMD | Diagnosis (AMD patients [1]; Patient #2, atorvastatin 80 mg/day, OD, month 66 (July 2018), ending diagnosis): Early AMD | Diagnosis (AMD patients [1]; Patient #2, atorvastatin 80 mg/day, OS, month 66 (July 2018), ending diagnosis): Early AMD | Responder (AMD patients [1]; Patient #2, atorvastatin 80 mg/day, month 66 (July 2018)): Yes | Diagnosis (AMD patients [1]; Patient #3, atorvastatin 80 mg/day from October 2016, OD, month 0 (October 2016), baseline): Late AMD (CNV) | Diagnosis (AMD patients [1]; Patient #3, atorvastatin 80 mg/day, OD, month 20 (June 2018), ending diagnosis): Late AMD (CNV) | Responder (AMD patients [1]; Patient #3, atorvastatin 80 mg/day, month 20 (June 2018)): No | Diagnosis (AMD patients [1]; Patient #4, atorvastatin 80 mg/day from May 2018, OD, month 0 (May 2018), baseline): Late AMD (GA) | Diagnosis (AMD patients [1]; Patient #4, atorvastatin 80 mg/day from May 2018, OS, month 0 (May 2018), baseline): Intermediate AMD | Diagnosis (AMD patients [1]; Patient #4, atorvastatin 80 mg/day, OD, month 4 (September 2018), ending diagnosis): Late AMD (GA) | Diagnosis (AMD patients [1]; Patient #4, atorvastatin 80 mg/day, OS, month 4 (September 2018), ending diagnosis): Intermediate AMD | Responder (AMD patients [1]; Patient #4, atorvastatin 80 mg/day, month 4 (September 2018)): No | Diagnosis (AMD patients [1]; Patient #5, atorvastatin 80 mg/day (suspended January 2015-February 2016), then 20 mg/day, pravastatin 20 mg/day from April 2018, OD, month 52 (June 2018), ending diagnosis): Intermediate AMD | Diagnosis (AMD patients [1]; Patient #5, atorvastatin 80 mg/day (suspended January 2015-February 2016), then 20 mg/day, pravastatin 20 mg/day from April 2018, OS, month 52 (June 2018), ending diagnosis): Intermediate AMD | Responder (AMD patients [1]; Patient #5, atorvastatin 80 mg/day (suspended January 2015-February 2016), then 20 mg/day, pravastatin 20 mg/day from April 2018, month 52 (June 2018)): No | Diagnosis (AMD patients [1]; Patient #5, atorvastatin 80 mg/day from January 2014, OD, month 0 (January 2014), baseline): Intermediate AMD | Diagnosis (AMD patients [1]; Patient #5, atorvastatin 80 mg/day from January 2014, OS, month 0 (January 2014), baseline): Intermediate AMD | Diagnosis (AMD patients [1]; Patient #6, atorvastatin 80 mg/day from November 2017, OD, month 0 (November 2017), baseline): Intermediate AMD | Diagnosis (AMD patients [1]; Patient #6, atorvastatin 80 mg/day from November 2017, OS, month 0 (November 2017), baseline): Intermediate AMD | Diagnosis (AMD patients [1]; Patient #6, atorvastatin 80 mg/day, OD, month 9 (August 2018), ending diagnosis): Intermediate AMD | Diagnosis (AMD patients [1]; Patient #6, atorvastatin 80 mg/day, OS, month 9 (August 2018), ending diagnosis): Intermediate AMD | Responder (AMD patients [1]; Patient #6, atorvastatin 80 mg/day, month 9 (August 2018)): Maybe | Diagnosis (AMD patients [1]; Patient #7, atorvastatin 10 to 20 mg/day from April 2016, OD, month 0 (April 2016), baseline): Intermediate AMD | Diagnosis (AMD patients [1]; Patient #7, atorvastatin 10 to 20 mg/day from April 2016, OS, month 0 (April 2016), baseline): Intermediate AMD | Diagnosis (AMD patients [1]; Patient #7, atorvastatin 10 to 20 mg/day, OD, month 27 (July 2018), ending diagnosis): Intermediate AMD | Diagnosis (AMD patients [1]; Patient #7, atorvastatin 10 to 20 mg/day, OS, month 27 (July 2018), ending diagnosis): Intermediate AMD | Responder (AMD patients [1]; Patient #7, atorvastatin 10 to 20 mg/day, month 27 (July 2018)): No | VA (visual acuity) (AMD patients [2]; OD, month 0 (July 2013), baseline): VA 20/25 | VA (visual acuity) (AMD patients [2]; OD, month 59 (June 2018)): VA 20/25 | VA (visual acuity) (AMD patients [2]; OS, month 0 (July 2013), baseline): VA 20/32 | VA (visual acuity) (AMD patients [2]; OS, month 59 (June 2018)): VA 20/25

Source: patent US12640239B2, “Functional biomarkers for statin therapy in age-related macular degeneration (AMD)” (APELIOTUS TECHNOLOGIES, INC., priority 2017, dated 2026)
